The MIC is the smallest concentration in the dilution series that meets the test's criterion for growth inhibition. Read a high MIC as a less susceptible organism.

SMILES strings stand for the structures. In brackets after ≈: the same amount, converted by molar mass. Some results are limits rather than exact numbers.

This test deals with Streptococcus pneumoniae. As to the kind of experiment: Antimicrobial activity against multidrug resistant Streptococcus pneumoniae serotype 19F S43 carring erm(B),mef(E) and tet(M) gene. The class given is functional.
With `CCC[C@@H]1C[C@@H](C(=O)N[C@@H]([C@H]2O[C@H](SC)[C@H](O)[C@@H](O)[C@H]2O)[C@H](C)Cl)N(C)C1` [CLINDAMYCIN], the MIC is above 256 µg/mL. The figure for `CC[C@H]1OC(=O)[C@H](C)[C@@H](O[C@H]2C[C@@](C)(OC)[C@@H](O)[C@H](C)O2)[C@H](C)[C@@H](O[C@@H]2O[C@H](C)C[C@H](N(C)C)[C@H]2O)[C@](C)(O)C[C@@H](C)C(=O)[C@H](C)[C@@H](O)[C@]1(C)O` [ERYTHROMYCIN] is above 256 µg/mL; for `CC1(C)S[C@@H]2[C@H](NC(=O)Cc3ccccc3)C(=O)N2[C@H]1C(=O)O` [PENICILLIN G] it is 4 µg/mL (≈ 12 µM); for `CN(C)[C@@H]1C(O)=C(C(N)=O)C(=O)[C@@]2(O)C(O)=C3C(=O)c4c(O)cccc4[C@@](C)(O)[C@H]3C[C@@H]12` [TETRACYCLINE] it is 16 µg/mL (≈ 36 µM).

The values are drawn from ChEMBL document CHEMBL1629648, “New composite genetic element of the Tn916 family with dual macrolide resistance genes in a Streptococcus pneumoniae isolate belonging to clonal complex 271” (2009).
